Reference: patent US20040106135A1, “Assay for PPAR ligand dependent gene modulation” (priority 2002, published 2004)

Legend:
[1] = tested on: PDK4 mRNA in HEK293 cells; test: PDK4 mRNA induction in HEK293 cells by PPAR modulators (Taqman PCR); assay type: cell-based, human; settings: 4 hours; 100 micromolar fenofibric acid, 10 micromolar rosiglitazone, 10 micromolar GW501516; relative to CYCD1 mRNA
Protocol: HEK293 cells were treated for 4 hours with the following PPAR modulators:
100 micromolar fenofibric acid (a PPARα selective modulator), 10 micromolar rosiglitazone (a PPARγ selective modulator) and 10 micromolar GW501516 (a PPARβ(δ) selective modulator; Oliver et al., (2001) Proc. Natl. Acad. Sci. U.S.A. 98:5306-11). PDK4 mRNA was measured by Taqman PCR analysis. The PDK4 expression levels are expressed relative to CYCD1 mRNA used as a normalization control.

[2] = tested on: PDK-4 mRNA in HK-2 cells (endogenous PPARα); test: PDK-4 mRNA induction in HK-2 cells (real-time RT-PCR); assay type: cell-based, human; settings: 24 hours; for EC50: Homo sapiens, HK-2, PDK-4 mRNA induction by quantitative PCR, normalized to 18S rRNA, read-out: EC50 (μM) in HK-2 (PDK-4)
Protocol: (§1) Values were normalized to 18S rRNA levels.
(§2) EC50 values were determined for PDK-4 mRNA induction by quantitative PCR under conditions used to generate the data shown in FIG. 2. EC50 values in the transactivation assays were determined by transfection of an expression plasmid encoding a GAL4-hPPARα chimera into cells co-expressing a luciferase reporter gene under the transcriptional control of GAL4 upstream activating elements.
(§3) Cell culture: The following cell lines were obtained from American Type Culture Collection (ATCC) and cultured in the recommended medium for each cell type: HepG2, HK-2, Caki-1, LNCaP (CloneFGC), SW872, and ACHN. PPARα compounds were prepared to a 500× stock in DMSO; corresponding control cells received an equal volume of vehicle (0.2% v/v).
Real-time PCR: Fluorescence-based real-time PCR was performed essentially as described (Abbaszade et al., (1999) J. Biol. Chem. 274:23443-23450). Primers and probes designed from the hamster pyruvate dehydrogenase kinase 4 (PDK4) sequence (Genbank Accession No. AF321218), human pyruvate dehydrogenase kinase 4 (PDK-4) sequence (Genbank Accession No. NM_002612) and human adipose differentiation-related protein (ADFP) sequence (Genbank Accession No. NM_001122) were synthesized and purified by Biosearch Technologies. Probes for ADFP and PDK-4 were modified at the 5′ end with the reporter dye 6-FAM, and at the 3′ end with the quencher dye Black Hole Quencher 1 (Biosearch Technologies). Probes detecting rat 18S rRNA were modified at the 5′ end with VIC and at the 3′ end with TAMRA (Biosearch Technologies). For detection of hamster PDK4, primers 5′-[…] (SEQ ID NO:2), 5′[…] (SEQ ID NO:3), and probe 5′-[…] (SEQ ID NO:4) were used. For detection of human PDK4, primers 5′-[…] (SEQ ID NO:5), 5′-[…] (SEQ ID NO:6), and probe 5′-[…] (SEQ ID NO:7) were used. For detection of human ADFP, primers 5′-[…] (SEQ ID NO:8), 5′-[…] (SEQ ID NO:9), and probe 5′-[…] (SEQ ID NO: 10) were used. For detection of 18s rRNA, primers 5′-[…] (SEQ ID NO:11), 5′-[…] (SEQ ID NO:12), and probe 5′-[…] (SEQ ID NO:13) were used. Template cDNA was generated using the Advantage RT-PCR kit according to the manufacturer's (Clontech) instructions using random hexamers and 1 μg of DNaseI-treated total RNA. Taqman-based real-time PCR expression profiling was performed using 25 ng of each cDNA according to the manufacturer's (PE Biosystems) instructions with fluorescence being monitored in real-time with an ABI Prism 7700 (PE Biosystems). Relative expression levels were determined essentially as described (Gibson et al., (1996) Genome Res. 6:995-1001) using standard curves for each transcript. Relative abundance was then determined from these standard curves, subtracting mRNA levels obtained from negative control reactions performed in the absence of reverse transcriptase, and normalized to 18S rRNA levels. All expression measurements were performed in duplicate in two independent assays, generating a total of four measurements per cDNA.

GAL4-hPPARα = biological target: T1, GAL4-hPPARα (Homo sapiens, UniProt Q07869); test: Transactivation assay, GAL4-hPPARα chimera with luciferase reporter; assay type: cell-based; settings: HEK293 cell line with GAL4 UAS-Luciferase reporter; read-out: EC50 (μM) in Transactivation Assay (GAL4-hPPARα), Present Disclosure
T1 construct: other: HEK293 cell line with GAL4 UAS-Luciferase
T1 sequence (Q07869 200-468 limits assumed): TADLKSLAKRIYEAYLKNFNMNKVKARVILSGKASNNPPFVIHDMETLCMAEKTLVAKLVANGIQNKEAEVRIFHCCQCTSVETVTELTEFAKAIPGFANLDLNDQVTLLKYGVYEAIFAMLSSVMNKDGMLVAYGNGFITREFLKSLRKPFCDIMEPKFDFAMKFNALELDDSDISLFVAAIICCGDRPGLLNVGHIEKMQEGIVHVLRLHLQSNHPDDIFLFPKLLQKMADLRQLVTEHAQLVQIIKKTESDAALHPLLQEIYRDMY
Protocol: as §2
Transcriptional activation assay: Cell based transcriptional activation assays using a GAL4-hPPARa expression plasmid and an HEK293 cell line stably integrated with a GAL4 UAS-Luciferase reporter gene was performed exactly as described previously (Mukherjee et al., (2002) J. Steroid Biochem. Mol. Biol. 1712:1-9).

[3] = tested on: hamster PDK-4 mRNA in kidney; test: PDK-4 mRNA induction in kidney of fat-fed hamsters; assay type: in vivo; settings: single dose (GW9578 3 mg/kg, fenofibrate 100 mg/kg, gemfibrozil 500 mg/kg), 16 hours
Protocol: FIG. 4B is a bar graphs depicting the induction of PDK-4 mRNA in hamster kidney by PPARα ligands. […] After 16 hours, the tissues were harvested, total RNA isolated and levels of hamster PDK-4 mRNA were detected by RT-PCR. The values are normalized to 18S rRNA levels. The mean and SEM of three individual animals are shown.
(§4) PDK-4 plays a critical role in regulating glucose metabolism by phosphorylating and inactivating the pyruvate dehydrogenase complex in response to increased fatty acid oxidation. […] To investigate the response of PDK-4 to fibrate treatment in vivo, in another aspect of the present invention the fat-fed hamster model was employed, which closely mimics the serum lipid profiles of humans than other rodent models (Sullivan et al., (1993) Lab. Anim. Sci. 43:575-578). […] These doses were previously shown to yield maximal effects on blood triglycerides in hamster. […] In hamster kidney, the basal levels of PDK-4 mRNA were approximately 10-fold higher than in the liver (FIG. 4B). […] Fibrates are effective treatments for lowering serum triglyceride levels. To verify that the doses used in this study were efficacious, blood triglyceride levels were monitored over a 48 hour time course.
(§5) Real-time PCR: Fluorescence-based real-time PCR was performed essentially as described (Abbaszade et al., (1999) J. Biol. Chem. 274:23443-23450). […] Taqman-based real-time PCR expression profiling was performed using 25 ng of each cDNA according to the manufacturer's (PE Biosystems) instructions with fluorescence being monitored in real-time with an ABI Prism 7700 (PE Biosystems). Relative expression levels were determined essentially as described (Gibson et al., (1996) Genome Res. 6:995-1001) using standard curves for each transcript. Relative abundance was then determined from these standard curves, subtracting mRNA levels obtained from negative control reactions performed in the absence of reverse transcriptase, and normalized to 18S rRNA levels. […]

[4] = tested on: hamster PDK-4 mRNA in liver; test: PDK-4 mRNA induction in liver of fat-fed hamsters; assay type: in vivo; settings: single dose (GW9578 3 mg/kg, fenofibrate 100 mg/kg, gemfibrozil 500 mg/kg), 16 hour post-treatment
Protocol: FIG. 4A is a bar graph depicting the induction of PDK-4 mRNA in hamster liver by PPARα ligands. […] After 16 hours, the tissues were harvested, total RNA isolated and levels of hamster PDK-4 mRNA were detected by RT-PCR. The values are normalized to 18S rRNA levels. The mean and SEM of three individual animals are shown.
as §4, §5

[5] = Serum triglyceride levels in fat-fed hamsters; assay type: in vivo, hamster; settings: for Serum triglyceride levels, 48 h / Serum triglyceride levels, 8 h / Serum triglyceride levels, 16 h: single dose, mean +/- SEM, 3 animals; for Serum triglyceride levels, 48 h: control 208.67; for Serum triglyceride levels, 8 h: control 261.33; for Serum triglyceride levels, 16 h: control 308.00
Protocol: Blood was sampled at 8, 16 and 48 hours following a single drug treatment for total triglyceride analysis. The mean levels (+/−SEM) for 3 animals per group are shown. The “*” indicates a statistically significant difference with respect to control (p<0.01) by Student's t-test. Animal studies: All procedures performed in this study were approved by the Animal Care and Use committee, and conform to the guide for the Care and Use of Laboratory Animals Act. Male Syrian Golden hamsters (Charles River, Wilmington Mass.) weighing 120-140 g, were used in the study. Animals were kept on a 12-hour light/dark cycle and allowed free access to normal chow and water. The animals were divided into groups according to weight, and fed either an high fat diet (0.5% cholesterol, 5% coconut oil) (N=3) or normal chow diet (N=3). […] At intervals of 0, 8, 16 and 48 hr animals were anesthetized with CO2. Blood was collected by cardiac puncture into EDTA containing tubes; plasma was isolated for immediate analysis of triglycerides by the Dade Clinical Analyser®. Animals were then euthanized with CO2. The liver and kidneys were collected, flash frozen in liquid nitrogen and stored at −80° C. for future gene expression analysis.

PDK-4 [6] = settings: Way et al. (2001); cited from earlier work
PDK-4 [7] = settings: Wu et al. (1999); abrogated in PPARα-/- mice; cited from earlier work
hamster PPARα = test: Hamster PPARα transactivation assay; assay type: cell-based
[8] = tested on: ADRP mRNA in HK-2 cells (endogenous PPARα); test: ADRP mRNA induction in HK-2 cells (real-time RT-PCR); assay type: cell-based, human; settings: highest dose tested 300 μM
Protocol: as §1, §3, §5

SMILES	EC50 [2]	EC50 (GAL4-hPPARα)	Induction of PDK-4 mRNA in kidney [3]	Induction of PDK-4 mRNA levels in the liver [4]	Serum triglyceride levels, 48 h [5]	Serum triglyceride levels, 8 h [5]	Serum triglyceride levels, 16 h [5]	also measured
Cc1cc(SCc2sc(-c3ccc(C(F)(F)F)cc3)nc2C)ccc1OCC(=O)O [GW501516]	–	–	–	–	–	–	–	PDK4 mRNA induction in HEK293 cells [1]: induced
CC(C)(Oc1ccc(C(=O)c2ccc(Cl)cc2)cc1)C(=O)O [Fenofibric Acid, fenofibric acid]	10 µM	80 µM	–	–	–	–	–	–
CC(C)OC(=O)C(C)(C)Oc1ccc(C(=O)c2ccc(Cl)cc2)cc1 [Fenofibrate, fenofibrate]	–	–	11 fold	14 fold	146.33 + 17.15	229.00 + 38.52	231.67 + 63.22	–
CN(CCOc1ccc(C[C@H](Nc2ccccc2C(=O)c2ccccc2)C(=O)O)cc1)c1ccccn1 [GW1929]	–	–	–	–	–	–	–	PDK-4 levels in the skeletal muscle of rats (PDK-4 [6]): decrease PDK-4 levels
Cc1cccc(Nc2cc(Cl)nc(SCC(=O)O)n2)c1C [WY-14, 643]	–	–	–	–	–	–	–	PDK-4 induction in rodent tissues in vivo (PDK-4 [7]): PDK-4 induction was observed
Cc1ccc(C)c(OCCCC(C)(C)C(=O)O)c1 [Gemfibrozil]	27 µM	60 µM	no effect	least effect	206.33 + 65.30	334.33 + 82.42	325.67 + 46.77	Activity in hamster PPARα transactivation assay (hamster PPARα): lowest activity; Saturation of ADRP induction [8]: did not appear to saturate; Efficacy of PDK-4 induction compared with GW9578 ([2]; HK-2 cells, maximal induction by GW9578 = 100%): lower efficacy than GW9578; Change of triglyceride levels compared with the control group ([5]; single dose, 8, 16 and 48 hours): neither gemfibrozil nor fenofibrate altered triglyceride levels to a statistically significant degree
